The test system of data set [1] is hepatitis B surface antigen (HBsAg). Put plainly: In vitro HBV activity test, hepatitis B virus S antigen by ELISA in HepG2.2.15 cells. It is filed as cell-based. Here is the method:
(§1) 1. Cell Lines: HepG2.2.15 Cells
(§2) 2. Reagents: • Pancreatin (Invitrogen-25300062) • DPBS (Corning-21031CVR) • Dimethyl sulfoxide (Sigma-D2650-100 ML) • High-throughput DNA purification kit (QIAamp 96 DNA Blood Kit, Qiagen-51162) • Quantitative faststart universal probe reagent (FastStart Universal Probe Master, Roche-04914058001) • Hepatitis B surface antigen quantitative detection kit (Autobio, CL 0310) • 3. Consumables and Instruments • 96-well cell culture plate (Corning-3599) • CO2 incubator (HERA-CELL-240) • Optical sealing film (ABI-4311971) • Quantitative PCR 96-well plate (Applied Biosystems-4306737) • Fluorescence quantitative PCR instrument (Applied Biosystems-7500 real time PCR system)
(§3) 1. HepG2.2.15 cells (4×10^4 cells/well) were seeded to a 96-well plate and incubated overnight at 37° C., 5% CO2.
2. […]
6.3 Determination of the content of hepatitis B virus S antigen by ELISA involve respectively adding 50 μl of samples and standards to a reaction plate, and then adding 50 μL of enzyme conjugate to each well; shaking same to mix uniformly, and incubating at 37° C. for 60 minutes; washing the plate 5 times with a washing solution, adding 50 μL of luminescent substrate to each well, mixing uniformly, and reacting same in the dark at room temperature for 10 minutes; and finally, detecting chemiluminescence intensity with a microplate reader. […]
In general terms: An ELISA detects its analyte on a solid surface through an enzyme-linked reagent.

The test system of data set [2] is HBV-DNA. Briefly: In vitro HBV activity test, HBV-DNA by quantitative PCR in HepG2.2.15 cells. It is filed as cell-based, Hepatitis B Virus. Here is the method:
as §1, §2, §3
2. On day 2, the compound was diluted to a total of 8 concentrations, with a 3-fold gradient dilution. The compounds at different concentrations were added to culture wells in duplicate. The final concentration of dimethyl sulfoxide in the culture medium was 0.5%. 10 μM ETV was used as 100% inhibition control; 0.5% dimethyl sulfoxide was used as a 0% inhibition control.
3. On day 5, the culture medium was replaced with a fresh culture medium containing the compound.
4. […]

The test system of data set [3] is hepatitis B. The note with it: woodchuck model, used as a single drug; cited from earlier work.
The nature of data set [4]: Stability test of crystal form A as a solid under high temperature and high humidity conditions. The note with it: 40° C./75% humidity. It is filed as physicochemical. The procedure: 2 samples of crystal form A of the compound of formula (I) were weighed in parallel (about 100 mg each), placed on the bottom of glass sample bottles, and spread out as a thin layer. The bottles were sealed with aluminum foil paper, and some small holes were made on the aluminum foil paper to ensure that the samples could fully contact with ambient air. The bottles were placed in a constant temperature and humidity chamber at 40° C./75% humidity. The samples placed under the above-mentioned conditions were sampled and tested on day 5 and day 10. The test results were compared with initial test results on day 0.

The nature of data set [5]: Physical stability test of crystal form A as a solid under various temperature, humidity and light conditions. It is filed as physicochemical. Here is the method: 4 samples of crystal form A of the compound of formula (I) were weighed in parallel (about 100 mg each), placed on the bottom of glass sample bottles, and spread out as a thin layer. The bottles were sealed with aluminum foil paper, and some small holes were made on the aluminum foil paper to ensure that the samples could fully contact with ambient air. The prepared 4 samples were placed under a relative humidity of 25° C./92.5%, 60° C., 40° C./75% and light conditions, respectively, to investigate the physical stability of the samples on day 10. In addition, about 100 mg of crystal form A solid of the compound of formula (I) was separately weighed, placed at the bottom of a glass sample bottle, sealed with a screw cap and stored at −20° C. for use as a control sample. On day 10, all samples were taken out, returned to room temperature, and observed for appearance changes, and the crystal forms of the samples were detected by XRPD. By comparing an accelerated sample with the control sample, the physical stability of crystal form A of the compound of formula (I), as a solid, was determined.

[6] abbreviates: 25° C./92.5% relative humidity (open), Day 10.
[7] abbreviates: 40° C./75% relative humidity (open), Day 10.
Setting [8] is: Day 0 (−20° C. storage with seal) (control sample), time point Day 10.

In general, EC50 refers to the concentration needed to bring the measured effect to its halfway point.

As for `COCCCOc1cc2c(cc1Cl)-c1cc(=O)c(C(=O)O)cn1[C@H](c1cccs1)O2` [Compound of formula (I)], the “inhibition of hepatitis B surface antigen (HBsAg) (experimental conclusion)” value in data set [1] (HepG2.2.15 cells) was “effectively inhibit”. The EC50 was found to be 1.54 nM in data set [1] (Hepatitis B virus, HepG2.2.15, 192 h, read-out: HBsAg EC50) and 1.13 nM in data set [2] (Hepatitis B virus, 192 h, culture medium collected on day 8). Further, the “inhibition of HBV-DNA (experimental conclusion)” value in data set [2] is on record as “effectively inhibit”.

Turning to `COCCCOc1cc2c(cc1OC)-c1cc(=O)c(C(=O)O)cn1[C@H](C(C)C)C2` [RG7834], in data set [3], the “reduction of HBV-DNA” value is given as 1.7 Log and the “reduction of surface antigens” value was 2.57 Log.

Consider `COCCCOc1cc2c(cc1Cl)-c1cc(=O)c(C(=O)O)cn1[C@H](c1cccs1)O2` [crystal form A], for which the Appearance entry in data set [4] (day 0 (initial)), in data set [4] (day 5) and in data set [4] (day 10) was “White powder” in each case. In addition, the Polymorph entry in data set [4] (day 0 (initial)) is “Polymorph A”; in data set [4] (day 5) it was “Polymorph A”; in data set [4] (day 10), “Polymorph A”; in data set [5] (setting [6]), “Polymorph A”; in data set [5] (setting [7]), “Polymorph A”; in data set [5] (60° C. (open), Day 10), “Polymorph A”. For the same compound, the Polymorph result is listed as “Polymorph A” in data set [5] (setting [8]) and “Polymorph A” in data set [5] (Light, Day 10). In addition, the Purity is listed as 99.79% in data set [4] (day 0 (initial)); 99.79% in data set [4] (day 5); 99.79% in data set [4] (day 10); 99.80% in data set [5] (setting [6]); 99.79% in data set [5] (setting [7]); 99.75% in data set [5] (60° C. (open), Day 10). Further, the Purity in data set [5] (setting [8]) amounted to 99.79%; in data set [5] (Light, Day 10), 99.71%. In addition, the Total impurities in data set [4] (day 0 (initial)), in data set [4] (day 5) and in data set [4] (day 10) was 0.21% throughout. The “stability (experimental conclusion)” value in data set [4] (solid, up to day 10) is “good stability”; in data set [5] (solid, various temperature, humidity and light conditions, day 10) it was “good stability”. Also, the Character result in data set [5] (setting [6]) is listed as “White powder”; in data set [5] (setting [7]), “White powder”; in data set [5] (60° C. (open), Day 10) it was “White powder”; in data set [5] (setting [8]) it was “White powder”; in data set [5] (Light, Day 10), “White powder”.

These data come from patent US11807647B2, “Crystal form of hepatitis B surface antigen inhibitor and application thereof” (FUJIAN AKEYLINK BIOTECHNOLOGY CO., LTD., priority 2019, dated 2023).
